Laboratory results published in the NIST ThermoML archive (doi:10.1016/j.jct.2014.07.012).

Assay: mn = molality of the nth substance listed, in mol/kg
Details: 100 kPa, Liquid; for speed of sound: Frequency=3 MHz, Sing-around technique in a fixed-path interferometer; for mass density: Vibrating tube method

CCCCNC(N)=O [N-butylurea] + O
Details | mass density, 288.15 K [kg/m3] | mass density, 293.15 K [kg/m3] | mass density, 298.15 K [kg/m3] | mass density, 303.15 K [kg/m3] | mass density, 308.15 K [kg/m3] | speed of sound, 288.15 K [m/s] | speed of sound, 293.15 K [m/s] | speed of sound, 298.15 K [m/s] | speed of sound, 303.15 K [m/s] | speed of sound, 308.15 K [m/s]
m1 = 0.0486 | 999.444 | 998.527 | 997.349 | 995.933 | 994.297 | 1471.6 | 1487.2 | 1501.1 | 1513.1 | 1523.5
m1 = 0.0781 | 999.638 | 998.707 | 997.514 | 996.086 | 994.438 | 1474.5 | 1490 | 1503.6 | 1515.4 | 1525.6
m1 = 0.1078 | 999.835 | 998.889 | 997.683 | 996.243 | 994.583 | 1477.5 | 1492.7 | 1506.1 | 1517.7 | 1527.6
m1 = 0.1473 | 1000.1 | 999.134 | 997.909 | 996.448 | 994.774 | 1481.3 | 1496.2 | 1509.3 | 1520.6 | 1530.3
m1 = 0.1974 | 1000.44 | 999.45 | 998.201 | 996.718 | 995.022 | 1486.1 | 1500.6 | 1513.3 | 1524.3 | 1533.7
m1 = 0.2475 | 1000.78 | 999.763 | 998.489 | 996.985 | 995.266 | 1490.8 | 1504.9 | 1517.3 | 1527.9 | 1536.9
m1 = 0.2986 | 1001.14 | 1000.09 | 998.789 | 997.259 | 995.516 | 1495.5 | 1509.2 | 1521.2 | 1531.5 | 1540.2

NC(N)=O [urea] + O
Details | mass density, 288.15 K [kg/m3] | mass density, 293.15 K [kg/m3] | mass density, 298.15 K [kg/m3] | mass density, 303.15 K [kg/m3] | mass density, 308.15 K [kg/m3] | speed of sound, 288.15 K [m/s] | speed of sound, 293.15 K [m/s] | speed of sound, 298.15 K [m/s] | speed of sound, 303.15 K [m/s] | speed of sound, 308.15 K [m/s]
m1 = 0.0504 | 999.922 | 999.019 | 997.847 | 996.442 | 994.816 | 1468.2 | 1483.9 | 1498 | 1510.3 | 1520.9
m1 = 0.0807 | 1000.43 | 999.511 | 998.329 | 996.911 | 995.281 | 1469.1 | 1484.8 | 1498.8 | 1511 | 1521.6
m1 = 0.1107 | 1000.92 | 999.994 | 998.802 | 997.378 | 995.738 | 1470 | 1485.6 | 1499.6 | 1511.8 | 1522.2
m1 = 0.151 | 1001.58 | 1000.64 | 999.436 | 997.998 | 996.351 | 1471.3 | 1486.8 | 1500.6 | 1512.7 | 1523.1
m1 = 0.2005 | 1002.39 | 1001.43 | 1000.21 | 998.757 | 997.097 | 1472.8 | 1488.1 | 1501.9 | 1513.9 | 1524.2
m1 = 0.2512 | 1003.21 | 1002.23 | 1000.99 | 999.529 | 997.855 | 1474.1 | 1489.5 | 1503.1 | 1515 | 1525.3

CCN(CC)C(N)=O [1,1-diethylurea] + O
Details | mass density, 288.15 K [kg/m3] | mass density, 293.15 K [kg/m3] | mass density, 298.15 K [kg/m3] | mass density, 303.15 K [kg/m3] | mass density, 308.15 K [kg/m3] | speed of sound, 288.15 K [m/s] | speed of sound, 293.15 K [m/s] | speed of sound, 298.15 K [m/s] | speed of sound, 303.15 K [m/s] | speed of sound, 308.15 K [m/s]
m1 = 0.0535 | 999.376 | 998.462 | 997.288 | 995.875 | 994.243 | – | – | – | – | –
m1 = 0.0856 | 999.546 | 998.62 | 997.435 | 996.012 | 994.369 | 1474.9 | 1490.4 | 1503.9 | 1515.7 | 1525.8
m1 = 0.1181 | 999.725 | 998.786 | 997.589 | 996.154 | 994.501 | 1478 | 1493.2 | 1506.6 | 1518.1 | 1528
m1 = 0.1603 | 999.959 | 999.002 | 997.788 | 996.338 | 994.672 | 1482 | 1496.8 | 1509.9 | 1521.2 | 1530.8
m1 = 0.2142 | 1000.27 | 999.288 | 998.052 | 996.585 | 994.898 | 1487 | 1501.4 | 1514.1 | 1525 | 1534.3
m1 = 0.2689 | 1000.59 | 999.586 | 998.328 | 996.837 | 995.135 | 1491.9 | 1506 | 1518.2 | 1528.8 | 1537.8
m1 = 0.3254 | 1000.93 | 999.905 | 998.628 | 997.108 | 995.381 | 1496.9 | 1510.3 | 1522.2 | 1532.6 | 1541.3

O [water] + CCCCNC(N)=O
Details | mass density [kg/m3]
308.15 K, m2 = 0 | 994.065

CN(C)C(N)=O [N,N-dimethylurea] + O
Details | mass density, 288.15 K [kg/m3] | mass density, 293.15 K [kg/m3] | mass density, 298.15 K [kg/m3] | mass density, 303.15 K [kg/m3] | mass density, 308.15 K [kg/m3] | speed of sound, 288.15 K [m/s] | speed of sound, 293.15 K [m/s] | speed of sound, 298.15 K [m/s] | speed of sound, 303.15 K [m/s] | speed of sound, 308.15 K [m/s]
m1 = 0.0526 | 999.644 | 998.733 | 997.562 | 996.154 | 994.527 | 1469.9 | 1485.7 | 1499.7 | 1511.8 | 1522.3
m1 = 0.0842 | 999.97 | 999.051 | 997.869 | 996.454 | 994.818 | 1471.8 | 1487.5 | 1501.3 | 1513.4 | 1523.7
m1 = 0.1149 | 1000.29 | 999.36 | 998.171 | 996.746 | 995.103 | 1473.7 | 1489.2 | 1502.9 | 1514.8 | 1525
m1 = 0.1572 | 1000.73 | 999.785 | 998.583 | 997.148 | 995.495 | 1476.3 | 1491.6 | 1505.1 | 1516.8 | 1526.8
m1 = 0.2104 | 1001.28 | 1000.32 | 999.103 | 997.653 | 995.988 | 1479.6 | 1494.6 | 1507.8 | 1519.3 | 1529.1
m1 = 0.2629 | 1001.83 | 1000.85 | 999.617 | 998.153 | 996.474 | 1482.6 | 1497.4 | 1510.4 | 1521.7 | 1531.3
m1 = 0.318 | 1002.4 | 1001.4 | 1000.15 | 998.673 | 996.98 | 1485.9 | 1500.4 | 1513.2 | 1524.2 | 1533.6

CCCNC(N)=O [N-propylurea] + O
Details | mass density, 288.15 K [kg/m3] | mass density, 293.15 K [kg/m3] | mass density, 298.15 K [kg/m3] | mass density, 303.15 K [kg/m3] | mass density, 308.15 K [kg/m3] | speed of sound, 288.15 K [m/s] | speed of sound, 293.15 K [m/s] | speed of sound, 298.15 K [m/s] | speed of sound, 303.15 K [m/s] | speed of sound, 308.15 K [m/s]
m1 = 0.0494 | 999.566 | 998.653 | 997.48 | 996.069 | 994.44 | – | – | – | – | –
m1 = 0.079 | 999.848 | 998.924 | 997.74 | 996.318 | 994.678 | – | – | – | – | –
m1 = 0.0791 | – | – | – | – | – | 1473.3 | 1488.9 | 1502.6 | 1514.5 | 1524.8
m1 = 0.1089 | 1000.13 | 999.198 | 998.003 | 996.573 | 994.925 | 1475.8 | 1491.1 | 1504.7 | 1516.4 | 1526.5
m1 = 0.1484 | 1000.52 | 999.564 | 998.356 | 996.91 | 995.249 | 1479 | 1494.1 | 1507.4 | 1518.9 | 1528.8
m1 = 0.1983 | 1000.99 | 1000.02 | 998.792 | 997.329 | 995.652 | 1483 | 1497.8 | 1510.8 | 1522 | 1531.7
m1 = 0.249 | 1001.49 | 1000.49 | 999.244 | 997.763 | 996.069 | 1487.1 | 1501.6 | 1514.2 | 1525.2 | 1534.6
m1 = 0.3012 | 1001.99 | 1000.97 | 999.704 | 998.202 | 996.489 | 1491.1 | 1505.3 | 1517.7 | 1528.4 | 1537.5
